Read-outs that look alike come from different tables or passages of the source.
Key:
[1] = test system: Huh-7 cells containing HCV Con1 subgenomic replicon (GS4.1 cells); assay: HCV replicon assay (NS5A ELISA); format: cell-based
Experimental: General Procedure: Huh-7 cells containing HCV Con1 subgenomic replicon (GS4.1 cells) were grown in Dulbecco's Modified Eagle Medium (DMEM) supplemented with 10% fetal bovine serum (FBS), 2 mM L-glutamine, 110 mg/L sodium pyruvate, 1× non-essential amino acids, 100 U/mL penicillin-streptomycin, and 0.5 mg/mL G418 (Invitrogen). For dose-response testing, the cells were seeded in 96-well plates at 7.5×10^3 cells/well in a volume of 50 μL, and incubated at 37° C./5% CO2. Three hours after plating, 50 μL of ten 2-fold serial dilutions of compounds (highest concentration, 75 μM) were added, and cell cultures were incubated at 37° C./5% CO2 in the presence of 0.5% DMSO. Alternatively, compounds were tested at a single concentration of 15 μM. In all cases, Huh-7 cells lacking the HCV replicon served as negative control. The cells were incubated in the presence of compounds for 72 hrs after which they were monitored for expression of the NS5A protein by enzyme-linked immunosorbent assay (ELISA). For this, the plates were then fixed for 1 min with acetone/methanol (1:1, v/v), washed twice with phosphate-buffered saline (PBS), 0.1% Tween 20, blocked for 1 hr at room temperature with TNE buffer containing 10% FBS and then incubated for 2 hr at 37° C. with the anti-NS5A mouse monoclonal antibody A-236 (ViroGen) diluted in the same buffer. After washing three times with PBS, 0.1% Tween 20, the cells were incubated 1 hr at 37° C. with anti-mouse immunoglobulin G-peroxidase conjugate in TNE, 10% FBS. After washing as described above, the reaction was developed with O-phenylenediamine (Zymed). The reaction was stopped after 30 min with 2 N H2SO4, and absorbance was read at 492 nm using Sunrise Tecan spectrophotometer. EC50 values were determined from the % inhibition versus concentration data using a sigmoidal non-linear regression analysis based on four parameters with Tecan Magellan software.

GS4.1 cells = assay: Cytotoxicity evaluation in GS4.1 cells (Cell Titer 96 AQueous One); format: cell-based, human; conditions: cellular viability
Experimental: For cytotoxicity evaluation, GS4.1 cells were treated with compounds as described above and cellular viability was monitored using the Cell Titer 96 AQueous One Solution Cell Proliferation Assay (Promega). CC50 values were determined from the % cytotoxicity versus concentration data with Tecan Magellan software as described above.

[2] = Hepatitis C virus, Huh-7, GS4.1 cells, 72 hrs, NS5A ELISA, read-out: EC50
[3] = GS4.1 cells, 72 hrs, NS5A ELISA, read-out: EC50

| SMILES | EC50 [1, 2] | CC50 (GS4.1 cells) | EC50 [1, 3] | EC50 ([1]; Hepatitis C virus, Huh-7, 72 h) |
| --- | --- | --- | --- | --- |
| COC(=O)N[C@H](C(=O)N1CCCC1c1ncc(-c2cn3cc(-c4ccc(-c5cnc([C@@H]6CCCN6C(=O)[C@@H](NC(=O)OC)C(C)C)[nH]5)cc4)nc3s2)[nH]1)C(C)C (stereo partly drawn) [A7] | < 1 nM | > 75000 nM |  |  |
| CC(C)(C)OC(=O)N[C@@H](C(=O)N1CCC[C@H]1C(=O)Nc1cn2cc(-c3ccccc3)sc2n1)c1ccccc1 [A27] | 10 to 100 nM | > 75000 nM |  |  |
| CC(C)(C)OC(=O)Nc1ccc(-c2cn3cc(NC(=O)[C@@H]4CCCN4C(=O)[C@H](NC(=O)OC(C)(C)C)c4ccccc4)nc3s2)cc1 [A29] | > 100 nM | 10000 to 75000 nM |  |  |
| COC(=O)N[C@H](C(=O)N1CCC[C@H]1c1ncc(-c2ccc(-c3cn4cc(NC(=O)C5CCCN5C(=O)CNC(=O)OC(C)(C)C)nc4s3)cc2)[nH]1)C(C)C (stereo partly drawn) [A31] | 10 to 100 nM | > 75000 nM |  |  |
| COC(=O)N[C@H](C(=O)N1CCC[C@H]1C(=O)Nc1ccc(-c2cn3cc(NC(=O)C4CCCN4C(=O)[C@@H](NC(=O)OC)C(C)C)nc3s2)cc1)c1ccccc1 (stereo partly drawn) [A32] | < 1 nM | > 75000 nM |  |  |
| COC(=O)N[C@H](C(=O)N1CCC[C@H]1c1ncc(-c2ccc(-c3cn4cc(-c5cnc(C6CCCN6C(=O)[C@@H](NC(=O)OC(C)(C)C)c6ccccc6)[nH]5)nc4s3)cc2)[nH]1)C(C)C (stereo partly drawn) [A33] | < 1 nM | > 75000 nM |  |  |
| COC(=O)N[C@H](C(=O)N1CCC[C@H]1C(=O)Nc1ccc(-c2cn3cc(NC(=O)OC(C)(C)C)nc3s2)cc1)C(C)C [A34] |  | 10000 to 75000 nM | 1 to 10 nM |  |
| COC(=O)N[C@H](C(=O)N1CCCC1c1ncc(-c2ccc(-c3csc4c(-c5cnc(C6CCCN6C(=O)OCc6ccccc6)[nH]5)csc34)cc2)[nH]1)C(C)C (stereo partly drawn) [A49] | < 1 nM | > 75000 nM |  |  |
| COC(=O)N[C@H](C(=O)N1CCC[C@H]1c1ncc(-c2ccc(-c3cn4cc(NC(=O)[C@@H]5CCCN5C(=O)[C@H](NC(=O)OC(C)C)c5ccccc5)nc4s3)cc2)[nH]1)C(C)C [A56] | < 1 nM | > 75000 nM |  |  |
| COC(=O)N[C@H](C(=O)N1CCC[C@H]1c1ncc(-c2ccc(-c3cn4cc(NC(=O)[C@@H]5CCCN5C(=O)[C@H](NC(=O)OCC(C)C)c5ccccc5)nc4s3)cc2)[nH]1)C(C)C [A57] |  | > 75000 nM | < 1 nM |  |
| COC(=O)N[C@H](C(=O)N1CCCC1c1ncc(-c2ccc(-c3csc4c(-c5cnc(C6CCCN6C(=O)[C@@H](NC(=O)OC(C)(C)C)C(C)C)[nH]5)csc34)cc2)[nH]1)C(C)C (stereo partly drawn) [A76] | < 1 nM | > 75000 nM |  |  |
| COC(=O)N[C@H](C(=O)N1CCCC1c1ncc(-c2ccc(-c3csc4c(-c5cnc(C6CCCN6C(=O)[C@H](NC(=O)OC)C(C)C)[nH]5)csc34)cc2)[nH]1)C(C)C (stereo partly drawn) [A77] | < 1 nM | > 75000 nM |  |  |
| COC(=O)N[C@H](C(=O)N1CCCC1c1ncc(-c2csc3c(-c4ccc(-c5cnc(C6CCCN6C(=O)[C@@H](NC(=O)OC)C(C)C)[nH]5)cc4)csc23)[nH]1)c1ccccc1 (stereo partly drawn) [A78] | < 1 nM | > 75000 nM |  |  |
| COC(=O)N[C@@H](C(=O)N1CCC[C@H]1C(=O)Nc1ccc(-c2cn3cc(NC(=O)[C@@H]4CCCN4C(=O)[C@H](NC(=O)OC)c4ccccc4)nc3s2)cc1)c1ccccc1 [A79] |  | > 75000 nM | < 1 nM |  |
| COC(=O)N[C@@H](C(=O)N1CCC[C@H]1C(=O)Nc1ccc(C#Cc2cn3cc(NC(=O)[C@@H]4CCCN4C(=O)[C@H](NC(=O)OC)c4ccccc4)nc3s2)cc1)c1ccccc1 [A80] |  | > 75000 nM | < 1 nM |  |
| COC(=O)N[C@H](C(=O)N1CCCC1c1cc(-c2ccc(-c3csc4c(-c5ccc(-c6cnc(C7CCCN7C(=O)[C@@H](NC(=O)OC)C(C)C)[nH]6)cc5)csc34)cc2)[nH]n1)C(C)C (stereo partly drawn) [A87] | < 1 nM | > 75000 nM |  |  |
| COC(=O)N[C@H](C(=O)N1CCCC1c1nc(-c2ccc(-c3cn4cc(-c5ccc(-c6cnc([C@@H]7CCCN7C(=O)[C@@H](NC(=O)OC)C(C)C)[nH]6)cc5)sc4n3)cc2)c[nH]1)C(C)C (stereo partly drawn) [A93] | < 1 nM | > 75000 nM |  |  |
| COC(=O)N[C@H](C(=O)N1CCCC1c1ncc(-c2ccc(-c3csc4c(-c5ccccc5)csc34)cc2)[nH]1)C(C)C (stereo partly drawn) [A103] | 1 to 10 nM | 10000 to 75000 nM |  |  |

| SMILES | EC50 [1, 2] | CC50 (GS4.1 cells) | EC50 [1, 3] | EC50 ([1]; Hepatitis C virus, Huh-7, 72 h) |
| --- | --- | --- | --- | --- |
| COC(=O)N[C@H](C(=O)N1CCCC1c1nc(-c2ccc(-c3sc4cc(-c5ccc(-c6cnc([C@@H]7CCCN7C(=O)[C@@H](NC(=O)OC)C(C)C)[nH]6)cc5)sc4c3-c3ccc(-c4cnc(C5CCCN5C(=O)[C@@H](NC(=O)OC)C(C)C)[nH]4)cc3)cc2)c[nH]1)C(C)C (stereo partly drawn) [A105] |  | 10000 to 75000 nM |  | 10 to 100 nM |
| COC(=O)N[C@H](C(=O)N1CCCC1c1ncc(-c2cc3sc(-c4ncc(-c5c[nH]c([C@@H]6CCCN6C(=O)[C@@H](NC(=O)OC)C(C)C)n5)s4)cc3s2)[nH]1)C(C)C (stereo partly drawn) [A130] | < 1 nM | > 75000 nM |  |  |
| COC(=O)N[C@H](C(=O)N1CCC[C@H]1C(=O)Nc1cn2cc(-c3ccc(NC(=O)CNC(=O)[C@H](NC(=O)OC(C)(C)C)c4ccccc4)cc3)sc2n1)C(C)C [A147] | 10 to 100 nM | > 75000 nM |  |  |
| COC(=O)N[C@H](C(=O)N1CCC[C@H]1c1ncc(-c2ccc(-c3cn4cc(NC(=O)CNC(=O)[C@H](NC(=O)OC(C)(C)C)c5ccccc5)nc4s3)cc2)[nH]1)C(C)C [A148] | 1 to 10 nM | > 75000 nM |  |  |
| COC(=O)N[C@H](C(=O)N1CCC[C@H]1C(=O)Nc1cn2cc(-c3cccc(NC(=O)[C@@H]4CCCN4C(=O)[C@H](NC(=O)OC)c4ccccc4)c3)sc2n1)C(C)C [A149] | 10 to 100 nM | 10000 to 75000 nM |  |  |
| COC(=O)N[C@H](C(=O)N1CCC[C@H]1c1ncc(-c2ccc(-c3cn4cc(NC(=O)[C@@H]5CCCN5)nc4s3)cc2)[nH]1)C(C)C [A150] |  | 10000 to 75000 nM | 10 to 100 nM |  |
| COC(=O)N[C@H](C(=O)N1CCCC1c1ncc(-c2ccc(-c3csc4c(-c5cnc(C6CCCN6C(=O)OC(C)(C)C)[nH]5)csc34)cc2)[nH]1)C(C)C (stereo partly drawn) [A151] |  | 10000 to 75000 nM | < 1 nM |  |
| CC(C)(C)OC(=O)N1CCCC1c1ncc(-c2cn3cc(-c4ccc(Cl)cc4)sc3n2)[nH]1 (stereo not drawn) [A152] | > 100 nM | 10000 to 75000 nM |  |  |
| COC(=O)N[C@H](C(=O)N1CCCC1c1ncc(-c2ccc(-c3ccc(-c4nc5sccn5c4Cl)cc3)cc2)[nH]1)C(C)C (stereo partly drawn) [A154] | 10 to 100 nM | 10000 to 75000 nM |  |  |
| COC(=O)N[C@H](C(=O)N1CCC[C@H]1c1cc(-c2ccc(-c3cn4cc(NC(=O)[C@@H]5CCCN5C(=O)[C@H](NC(=O)OC(C)C)c5ccccc5)nc4s3)cc2)[nH]n1)C(C)C [A156] | < 1 nM | > 75000 nM |  |  |
| CC(C)(C)OC(=O)N1CCCC1c1nc(-c2ccc(-c3cn4cc(-c5ccc(-c6cnc([C@@H]7CCCN7C(=O)OC(C)(C)C)[nH]6)cc5)sc4n3)cc2)c[nH]1 (stereo partly drawn) [A157] | 10 to 100 nM | > 75000 nM |  |  |
| COC(=O)N[C@H](C(=O)N1CCCC1c1nc(-c2ccc(-c3cc4sc(-c5ccc(-c6cnc([C@@H]7CCCN7C(=O)[C@@H](NC(=O)OC)C(C)C)[nH]6)cc5)cc4s3)cc2)c[nH]1)C(C)C (stereo partly drawn) [A159] | < 1 nM | > 75000 nM |  |  |
| COC(=O)N[C@H](C(=O)N1CCCC1c1ncc(-c2ccc(-c3cn4ccsc4n3)cc2)[nH]1)C(C)C (stereo partly drawn) [A160] | 10 to 100 nM | > 75000 nM |  |  |
| CC(C)(C)OC(=O)N1CCCC1c1ncc(-c2ccc(-c3nc4sccn4c3Cl)cc2)[nH]1 (stereo not drawn) [A161] | > 100 nM | > 75000 nM |  |  |
| COC(=O)N[C@H](C(=O)N1CCCC1c1ncc(-c2ccc(-c3cn4c(-c5ccccc5)csc4n3)cc2)[nH]1)C(C)C (stereo partly drawn) [A162] | 1 to 10 nM | 10000 to 75000 nM |  |  |
| COC(=O)N[C@H](C(=O)N1CCCC1c1ncc(-c2ccc(-c3csc4cc(C(=O)OC)[nH]c34)cc2)[nH]1)C(C)C (stereo partly drawn) [A164] | 10 to 100 nM | 10000 to 75000 nM |  |  |
| CC(C)(C)OC(=O)N1CCCC1c1ncc(-c2ccc(-c3cn4ccsc4n3)cc2)[nH]1 (stereo not drawn) [A167] | > 100 nM |  |  |  |

— patent publication US9187496B2 (priority 2009, dated 2015)
